# In patent US11999941B2, “Composition suitable for protecting microorganisms” (SOCIÉTÉ DES PRODUITS NESTLÉ S.A., priority 2015, dated 2024):
# System: Bifidobacterium longum BL999
# Experiment: Pre-screening of single ingredients as protective agent: viability loss after spray-drying, storage and reconstitution
# Type: cell-based
# Settings: for storage stability / losses during storage and reconstitution: storage at T=37° C.; for storage stability / losses during storage and reconstitution / viability loss after 8 weeks: aw=0.22, after spray-drying; for protective effect during drying: individual ingredient 18.2 wt % with maltodextrin DE12 and sodium ascorbate, compared to the reference; for viability loss after 8 weeks: 8 weeks storage at T=37° C.
# Experimental: A fermentation medium suitable for the growth of Bifidobacterium longum BL999 was inoculated with 2% frozen-thawed bacteria.
# The centrifuged biomass was then conditioned according to the following process. […] Then 300 g of centrifuged biomass were filled into a beaker, which was placed in an ice water bath. The total solids content of the biomass was measured and the protective agent solution was added at a ratio of protective agents to biomass of 55/45 (based on dry weight). The mixture was gently agitated in the ice water bath for one hour. The pH was then adjusted to pH7.
# The conditioned concentrate was then spray-dried on a lab-scale spray-dryer (Buechi, B-290, Flawil, Switzerland). The air temperature was 140° C. and the tower temperature was adjusted by the concentrate flow to T=70° C. During drying, the beaker containing the concentrate was cooled in an ice water bath.
# In a first round of trials, 38 ingredients were selected as potential protective agents. The effect of those ingredients on the stability of Bifidobacterium longum BL999 was tested by spray-drying biomass with a protective agent comprising maltodextrin DE12, sodium ascorbate and one single additional ingredient from the list of 38 compounds to be screened in the following concentrations:
# This control was used as a reference to evaluate the effect of the protective agents on the stability of Bifidobacterium longum BL999 during spray-drying, storage and reconstitution.
# The 38 culture powders and the control were prepared as described above, the conditioning being carried out with one of the 38 protective agents.
# The cell concentration of B. longum in the powder was detected by classical plating methods. Such classical plating methods are summarized in the microbiology book: James Monroe Jay, Martin J. Loessner, David A. Golden. […] Modern food microbiology. 7th edition, Springer Science, New York, N.Y. The cells were counted in the concentrate before drying, in the culture powder directly after drying and after 2, 3, 4, 6, 8 and/or 12 weeks storage in a climatic chamber at T=37° C. above saturated potassium acetate solution (aw=0.22). The cell counts after drying and after storage were determined after reconstitution of the powder with a reconstitution medium, as known by the person skilled in the art, who is well aware of the above-mentioned plating methods.
# The following formulae were used for the evaluation of the data:
# where X0 is the number of micro-organisms at time t=0 and Xt the number of microorganisms at time t. When the microbiological counts were measured in k replicates, x0 is the average number of micro-organisms at time t=0 and, xt is the average number of micro-organisms at time t, the average log loss at time t is given by:
# The tested individual ingredients were selected among several groups of molecules: sugars, sugar alcohols, amino acids and proteins. All tested ingredients within a group were spray-dried on the same day and the reference was spray dried again with each group, also on the same day.
# [1] = individual ingredient 18.2 wt %
structure (smiles),measurement,setting,value
"C[C@H](N)C(=O)O [alanine, L-alanine]",storage stability / losses during storage and reconstitution,[1],lowest losses during storage and reconstitution
"N=C(N)NCCC[C@H](N)C(=O)O [arginine, L-arginine]",storage stability / losses during storage and reconstitution,[1],lowest losses during storage and reconstitution
"N[C@@H](CS)C(=O)O [cysteine, L-cysteine]",viability loss during drying,"spray-drying, protective agent of maltodextrin DE12 68.2 wt %, sodium ascorbate 13.6 wt %, individual ingredient 18.2 wt %",0.2 log
same,storage stability / losses during storage and reconstitution,[1],lowest losses during storage and reconstitution
OCC(O)CO [glycerol],protective effect during drying,spray-drying,light protective effect
same,storage stability / losses during storage and reconstitution,[1],majority of the bacteria of this variant died already after two weeks storage
OC[C@@H](O)[C@@H](O[C@@H]1O[C@H](CO)[C@H](O)[C@H](O)[C@H]1O)[C@H](O)[C@@H](O)CO [lactitol],viability loss after 8 weeks,[1],lowest
"NCCCC[C@H](N)C(=O)O [lysine, L-lysine]",storage stability / losses during storage and reconstitution,[1],lowest losses during storage and reconstitution
OC[C@@H](O)[C@@H](O)[C@H](O)[C@H](O)CO [mannitol],viability loss after 8 weeks,[1],lowest
same,protective effect during drying,spray-drying,light protective effect
O[C@H]1[C@H](O)[C@@H](O)[C@H](O)[C@@H](O)[C@H]1O [myo-inositol],viability loss after 8 weeks,[1],lowest
O=C1O[C@H]([C@@H](O)CO)C([O-])=C1O.[Na+] [sodium ascorbate],protective effect during drying,spray-drying,does not show significant effect on the bacterial survival during the drying process
OC[C@@H](O)[C@@H](O)[C@H](O)[C@@H](O)CO [sorbitol],viability loss after 8 weeks,[1],lowest
same,protective effect during drying,spray-drying,light protective effect
OC[C@H]1O[C@@](CO)(O[C@H]2O[C@H](CO)[C@@H](O)[C@H](O)[C@H]2O)[C@@H](O)[C@@H]1O [sucrose],storage stability / losses during storage and reconstitution,[1],most efficient ingredient
OC[C@@H](O)[C@H](O)[C@@H](O)CO [xylitol],protective effect during drying,spray-drying,light protective effect
